Test results as given in US20180282351A1, “Amorphous Ixazomib Citrate” (Mylan Laboratories Ltd, priority 2015, published 2018).

Experiment: Stability of Form M2 on storage, polymorph checked by PXRD
Type: physicochemical
Procedure: In one aspect, the present invention provides crystalline ixazomib citrate form M1. The ixazomib citrate forms of the present invention, including form M1, prepared by methods disclosed herein, may be characterized by PXRD. Therefore samples of each ixazomib citrate form (including amorphous, M1, M2, M3, and M4) were analyzed by PXRD on a BRUKER D-8 Discover powder diffractometer equipped with a goniometer of θ/2θ configuration and Lynx Eye detector. The Cu-anode X-ray tube was operated at 40 kV and 30 mA. The experiments were conducted over the 2θ range of 2.0°-50.0°, 0.030° step size, and 0.4 seconds step time.

- Long-term physical stability (change in PXRD pattern) (1, 3 and 6 months stored at 5±3° C., at 25° C./60% and at 40° C./75% relative humidity (RH)): does not show any change in PXRD pattern
- Polymorph by PXRD (at 5 ± 3° C., 1 month): Form M2
- Polymorph by PXRD (at 5 ± 3° C., 3 months): Form M2
- Polymorph by PXRD (at 5 ± 3° C., 6 months): Form M2
- Polymorph by PXRD (at 5 ± 3° C., Initial): Form M2
- Polymorph by PXRD (at 25° C./60% RH, 1 month): Form M2
- Polymorph by PXRD (at 25° C./60% RH, 3 months): Form M2
- Polymorph by PXRD (at 25° C./60% RH, 6 months): Form M2
- Polymorph by PXRD (at 25° C./60% RH, Initial): Form M2
- Polymorph by PXRD (at 40° C./75% RH, 1 month): Form M2
- Polymorph by PXRD (at 40° C./75% RH, 3 months): Form M2
- Polymorph by PXRD (at 40° C./75% RH, 6 months): Form M2
- Polymorph by PXRD (at 40° C./75% RH, Initial): Form M2
SMILES: CC(C)C[C@H](NC(=O)CNC(=O)c1cc(Cl)ccc1Cl)B1OC(=O)C(CC(=O)O)(CC(=O)O)O1 [Form M2, 2,2′-{2-[(1R)-1-({[(2,5-dichlorobenzoyl)amino]acetyl}amino)-3-methylbutyl]-5-oxo-1,3,2-dioxaborolane-4,4-diyl}diacetic acid]
